Tested on: patients with advanced solid tumors
Assay: Treatment-related adverse events (CTCAE v5.0), phase I dose escalation
Format: in vivo
From the text: This study was a single‐arm, dose‐escalation phase I trial conducted in Sun Yat‐sen University Cancer Center in China. This study assessed CVL218 in patients with histologically or cytologically confirmed advanced solid tumors who were in PD after standard therapeutic regimens or lacked standard treatment options. Inclusion criteria included: age 18–75 years; with at least one measurable and evaluable target lesion per Response Evaluation Criteria in Solid Tumors 1.1 (RECIST 1.1); ECOG performance status of 0 or 1; adequate hematological, renal, cardiac, and hepatic functions and a life expectancy ≥12 weeks. Key exclusion criteria included prior usage of PARP inhibitors; allergic to the research drug or its components; with active, unstable systemic diseases or active, uncontrolled infection; a history of other malignancies within 5 years, and pregnant or lactating women.
CVL218 was administered orally, and this dose‐escalation trial included nine dose levels: 100 mg QD (50 mg BID), 200 mg QD (100 mg BID), 400 mg QD (200 mg BID), 700 mg QD (350 mg BID), 1000 mg QD (500 mg BID), 1200 mg QD (600 mg BID), 1400 mg QD (700 mg BID), 1700 mg QD (850 mg BID), and 2000 mg QD (1000 mg BID). Patients enrolled in the study received a single oral dose on the first day, followed by continuous multiple dosing (twice a day taking 12 h apart) after 72 h, with the treatment cycle lasting 4 weeks. The period during which patients received a single dose is designated as cycle 0 (C0), lasting 72 h. After this period, patients begin multiple dosing, referred to as cycle 1 (C1). An initial accelerated titration design was employed for the three lowest dose groups, and the “3+3” design was applied starting with the 300 mg BID cohort.
The primary objectives were to assess safety and tolerability as well as to determine the MTD, DLT, and dose recommended for further study. DLT was defined as any of the following events occurring during cycle 0 (including 72 h wash‐out period after a single dose) and cycle 1 per Common Terminology Criteria for Adverse Events (CTCAE) version 5.0: grade 4 anemia; grade 4 neutropenia; grade 3 neutropenia with fever ≥38.5°C; grade 4 thrombocytopenia; grade 3 thrombocytopenia associated with bleeding; grade ≥2 neurotoxicity; any other grade ≥3 nonhematological toxicities (excluding alopecia). The secondary objectives were to assess the PK and preliminary efficacy of CVL218.
Subjects who received at least one dose of CVL218 with postadministration safety records were included in safety analysis set. Subjects who received at least one dose of CVL218 with at least one evaluable PK parameter were included in PK analysis set. Per‐protocol set were used for efficacy analysis. Descriptive statistics of safety were presented per CTCAE v5.0. The PK parameters T max and T 1/2 were shown as the median (min, max) and mean ± SD, respectively. A two‐sided p < 0.05 was considered to indicate statistical significance. Statistical analysis was performed by using GraphPad prism 8.0.2 and R‐4.3.3.

## CNCc1ccc(-c2cc3cc(F)cc(C(N)=O)c3o2)cc1.Cl [CVL218]
600 mg BID, ≥G3
  Abdominal distension: 0 n (%)
  Abdominal pain: 0 n (%)
  Abdominal pain upper: 0 n (%)
  Amylase increased: 0 n (%)
  Anemia: 0 n (%)
  Any AE related to study drug: 1 (25.0) n (%)
  Asthenia: 0 n (%)
  Blood system disorders: 0 n (%)
  Blood triglycerides increased: 0 n (%)
  Cardiac disorders: 0 n (%)
  Chest discomfort: 0 n (%)
  Constipation: 0 n (%)
  Decreased appetite: 0 n (%)
  Diarrhea: 0 n (%)
  Dizziness: 0 n (%)
  Erectile dysfunction: 0 n (%)
  Gastrointestinal disorders: 0 n (%)
  General disorders: 0 n (%)
  Gingival bleeding: 0 n (%)
  Granulocyte count increased: 0 n (%)
  Headache: 0 n (%)
  Hypoalbuminemia: 0 n (%)
  Infusion site pain: 0 n (%)
  Limb discomfort: 0 n (%)
  Lipase increased: 0 n (%)
  Metabolic disorders: 0 n (%)
  Musculoskeletal discomfort: 0 n (%)
  Musculoskeletal disorders: 0 n (%)
  Nausea: 0 n (%)
  Nervous system disorders: 0 n (%)
  Neutrophil count decreased: 0 n (%)
  Neutrophil count increased: 0 n (%)
  Palpitations: 0 n (%)
  Protein urine present: 0 n (%)
  Proteinuria: 0 n (%)
  Rash: 0 n (%)
  Renal & urinary disorders: 0 n (%)
  Renal failure: 0 n (%)
  Reproductive disorders: 0 n (%)
  Skin disorders: 0 n (%)
  Urinary occult blood positive: 0 n (%)
  Vomiting: 0 n (%)
  WBC count decreased: 0 n (%)
  WBC count increased: 0 n (%)
700 mg BID, ALL
  Infusion site pain: 0 n (%)
  WBC count increased: 0 n (%)
700 mg BID, ≥G3
  ALT increased: 0 n (%)
  AST increased: 0 n (%)
  Abdominal distension: 0 n (%)
  Abdominal pain: 0 n (%)
  Abdominal pain upper: 0 n (%)
  Amylase increased: 0 n (%)
  Anemia: 0 n (%)
  Any AE related to study drug: 0 n (%)
  Asthenia: 0 n (%)
  Blood creatinine increased: 0 n (%)
  Blood system disorders: 0 n (%)
  Blood triglycerides increased: 0 n (%)
  Blood urea increased: 0 n (%)
  Cardiac disorders: 0 n (%)
  Chest discomfort: 0 n (%)
  Constipation: 0 n (%)
  Decreased appetite: 0 n (%)
  Diarrhea: 0 n (%)
  Dizziness: 0 n (%)
  Erectile dysfunction: 0 n (%)
  Gastrointestinal disorders: 0 n (%)
  General disorders: 0 n (%)
  Gingival bleeding: 0 n (%)
  Granulocyte count increased: 0 n (%)
  Headache: 0 n (%)
  Hypoalbuminemia: 0 n (%)
  Infusion site pain: 0 n (%)
  Laboratory test disorders: 0 n (%)
  Limb discomfort: 0 n (%)
  Lipase increased: 0 n (%)
  Metabolic disorders: 0 n (%)
  Musculoskeletal discomfort: 0 n (%)
  Musculoskeletal disorders: 0 n (%)
  Nausea: 0 n (%)
  Nervous system disorders: 0 n (%)
  Neutrophil count decreased: 0 n (%)
  Neutrophil count increased: 0 n (%)
  Palpitations: 0 n (%)
  Protein urine present: 0 n (%)
  Proteinuria: 0 n (%)
  Rash: 0 n (%)
  Renal & urinary disorders: 0 n (%)
  Renal failure: 0 n (%)
  Reproductive disorders: 0 n (%)
  Skin disorders: 0 n (%)
  Urinary occult blood positive: 0 n (%)
  Vomiting: 0 n (%)
  WBC count decreased: 0 n (%)
  WBC count increased: 0 n (%)
850 mg BID, ALL
  Infusion site pain: 0 n (%)
  WBC count increased: 1 (20.0) n (%)
850 mg BID, ≥G3
  ALT increased: 0 n (%)
  AST increased: 0 n (%)
  Abdominal distension: 0 n (%)
  Abdominal pain: 1 (20) n (%)
  Abdominal pain upper: 0 n (%)
  Amylase increased: 0 n (%)
  Anemia: 0 n (%)
  Any AE related to study drug: 2 (40.0) n (%)
  Asthenia: 0 n (%)
  Blood creatinine increased: 2 (40.0) n (%)
  Blood system disorders: 0 n (%)
  Blood triglycerides increased: 0 n (%)
  Blood urea increased: 0 n (%)
  Cardiac disorders: 0 n (%)
  Chest discomfort: 0 n (%)
  Constipation: 0 n (%)
  Decreased appetite: 0 n (%)
  Diarrhea: 0 n (%)
  Dizziness: 0 n (%)
  Erectile dysfunction: 0 n (%)
  Gastrointestinal disorders: 1 (20) n (%)
  General disorders: 0 n (%)
  Gingival bleeding: 0 n (%)
  Granulocyte count increased: 0 n (%)
  Headache: 0 n (%)
  Hypoalbuminemia: 0 n (%)
  Infusion site pain: 0 n (%)
  Laboratory test disorders: 2 (40.0) n (%)
  Limb discomfort: 0 n (%)
  Lipase increased: 0 n (%)
  Metabolic disorders: 0 n (%)
  Musculoskeletal discomfort: 0 n (%)
  Musculoskeletal disorders: 0 n (%)
  Nausea: 0 n (%)
  Nervous system disorders: 0 n (%)
  Neutrophil count decreased: 0 n (%)
  Neutrophil count increased: 0 n (%)
  Palpitations: 0 n (%)
  Protein urine present: 0 n (%)
  Proteinuria: 0 n (%)
  Rash: 0 n (%)
  Renal & urinary disorders: 0 n (%)
  Renal failure: 0 n (%)
  Reproductive disorders: 0 n (%)
  Skin disorders: 0 n (%)
  Urinary occult blood positive: 0 n (%)
  Vomiting: 0 n (%)
  WBC count decreased: 0 n (%)
  WBC count increased: 0 n (%)
All (N = 26), ALL
  ALT increased: 4 (15.4) n (%)
  AST increased: 2 (7.7) n (%)
  Abdominal distension: 1 (3.8) n (%)
  Abdominal pain: 1 (3.8) n (%)
  Abdominal pain upper: 1 (3.8) n (%)
  Amylase increased: 2 (7.7) n (%)
  Anemia: 2 (7.7) n (%)
  Any AE related to study drug: 26 (100) n (%)
  Asthenia: 2 (7.7) n (%)
  Blood creatinine increased: 5 (19.2) n (%)
  Blood system disorders: 2 (7.7) n (%)
  Blood triglycerides increased: 1 (3.8) n (%)
  Blood urea increased: 1 (3.8) n (%)
  Cardiac disorders: 1 (3.8) n (%)
  Chest discomfort: 2 (7.7) n (%)
  Constipation: 2 (7.7) n (%)
  Decreased appetite: 5 (19.2) n (%)
  Diarrhea: 10 (38.5) n (%)
  Dizziness: 3 (11.5) n (%)
  Erectile dysfunction: 1 (3.8) n (%)
  Gastrointestinal disorders: 24 (92.3) n (%)
  General disorders: 4 (15.4) n (%)
  Gingival bleeding: 1 (3.8) n (%)
  Granulocyte count increased: 1 (3.8) n (%)
  Headache: 2 (7.7) n (%)
  Hypoalbuminemia: 2 (7.7) n (%)
  Infusion site pain: 1 (3.8) n (%)
  Laboratory test disorders: 15 (57.7) n (%)
  Limb discomfort: 1 (3.8) n (%)
  Lipase increased: 6 (23.1) n (%)
  Metabolic disorders: 6 (23.1) n (%)
  Musculoskeletal discomfort: 1 (3.8) n (%)
  Musculoskeletal disorders: 1 (3.8) n (%)
  Nausea: 20 (76.9) n (%)
  Nervous system disorders: 4 (15.4) n (%)
  Neutrophil count decreased: 1 (3.8) n (%)
  Neutrophil count increased: 2 (7.7) n (%)
  Palpitations: 1 (3.8) n (%)
  Protein urine present: 1 (3.8) n (%)
  Proteinuria: 6 (23.1) n (%)
  Rash: 3 (11.5) n (%)
  Renal & urinary disorders: 7 (26.9) n (%)
  Renal failure: 3 (11.5) n (%)
  Reproductive disorders: 1 (3.8) n (%)
  Skin disorders: 3 (11.5) n (%)
  Urinary occult blood positive: 1 (3.8) n (%)
  Vomiting: 20 (76.9) n (%)
  WBC count decreased: 1 (3.8) n (%)
  WBC count increased: 2 (7.7) n (%)
All (N = 26), ≥G3
  ALT increased: 0 n (%)
  AST increased: 0 n (%)
  Abdominal distension: 0 n (%)
  Abdominal pain: 1 (3.8) n (%)
  Abdominal pain upper: 0 n (%)
  Amylase increased: 0 n (%)
  Anemia: 0 n (%)
  Any AE related to study drug: 4 (15.4) n (%)
  Asthenia: 0 n (%)
  Blood creatinine increased: 3 (11.5) n (%)
  Blood system disorders: 0 n (%)
  Blood triglycerides increased: 0 n (%)
  Blood urea increased: 1 (3.8) n (%)
  Cardiac disorders: 0 n (%)
  Chest discomfort: 0 n (%)
  Constipation: 0 n (%)
  Decreased appetite: 0 n (%)
  Diarrhea: 0 n (%)
  Dizziness: 0 n (%)
  Erectile dysfunction: 0 n (%)
  Gastrointestinal disorders: 1 (3.8) n (%)
  General disorders: 0 n (%)
  Gingival bleeding: 0 n (%)
  Granulocyte count increased: 0 n (%)
  Headache: 0 n (%)
  Hypoalbuminemia: 0 n (%)
  Infusion site pain: 0 n (%)
  Laboratory test disorders: 4 (15.4) n (%)
  Limb discomfort: 0 n (%)
  Lipase increased: 1 (3.8) n (%)
  Metabolic disorders: 0 n (%)
  Musculoskeletal discomfort: 0 n (%)
  Musculoskeletal disorders: 0 n (%)
  Nausea: 0 n (%)
  Nervous system disorders: 0 n (%)
  Neutrophil count decreased: 0 n (%)
  Neutrophil count increased: 0 n (%)
  Palpitations: 0 n (%)
  Protein urine present: 0 n (%)
  Proteinuria: 0 n (%)
  Rash: 0 n (%)
  Renal & urinary disorders: 0 n (%)
  Renal failure: 0 n (%)
  Reproductive disorders: 0 n (%)
  Skin disorders: 0 n (%)
  Urinary occult blood positive: 0 n (%)
  Vomiting: 0 n (%)
  WBC count decreased: 0 n (%)
  WBC count increased: 0 n (%)
All 26 patients
  TRAE of any grade: diarrhea: 38.5%
  TRAE of any grade: lipase increased: 23.1%
  TRAE of any grade: nausea: 76.9%
  TRAE of any grade: proteinuria: 23.1%
  TRAE of any grade: vomiting: 76.9%
  patients with ≥grade 3 TRAEs: 15.4%
  ≥grade 3 TRAE: abdominal pain: 3.8%
In vivo
  anemia of grade 3 or more severe: None of the anemias were of grade 3 or more severe
  grade ≥3 gastrointestinal AEs: 3.8%
  patients with gastrointestinal reactions: 92.3%
  ≥grade 3 TRAE: blood creatinine increased: 11.5%
  ≥grade 3 TRAE: blood urea increased: 3.8%
  ≥grade 3 TRAE: lipase increased: 3.8%

— PMC12238723, “Phase I Clinical Trial of CVL218, a Novel PARP1/2 Inhibitor, in Patients with Advanced Solid Tumors” (MedComm, 2025)
